Some results are limits rather than exact numbers.

The results in this text go back to patent publication US9657003B2, “Androgen receptor modulating compounds” (ORION CORPORATION, priority 2009, dated 2017).

Chain of human AR (P10275 whole entry): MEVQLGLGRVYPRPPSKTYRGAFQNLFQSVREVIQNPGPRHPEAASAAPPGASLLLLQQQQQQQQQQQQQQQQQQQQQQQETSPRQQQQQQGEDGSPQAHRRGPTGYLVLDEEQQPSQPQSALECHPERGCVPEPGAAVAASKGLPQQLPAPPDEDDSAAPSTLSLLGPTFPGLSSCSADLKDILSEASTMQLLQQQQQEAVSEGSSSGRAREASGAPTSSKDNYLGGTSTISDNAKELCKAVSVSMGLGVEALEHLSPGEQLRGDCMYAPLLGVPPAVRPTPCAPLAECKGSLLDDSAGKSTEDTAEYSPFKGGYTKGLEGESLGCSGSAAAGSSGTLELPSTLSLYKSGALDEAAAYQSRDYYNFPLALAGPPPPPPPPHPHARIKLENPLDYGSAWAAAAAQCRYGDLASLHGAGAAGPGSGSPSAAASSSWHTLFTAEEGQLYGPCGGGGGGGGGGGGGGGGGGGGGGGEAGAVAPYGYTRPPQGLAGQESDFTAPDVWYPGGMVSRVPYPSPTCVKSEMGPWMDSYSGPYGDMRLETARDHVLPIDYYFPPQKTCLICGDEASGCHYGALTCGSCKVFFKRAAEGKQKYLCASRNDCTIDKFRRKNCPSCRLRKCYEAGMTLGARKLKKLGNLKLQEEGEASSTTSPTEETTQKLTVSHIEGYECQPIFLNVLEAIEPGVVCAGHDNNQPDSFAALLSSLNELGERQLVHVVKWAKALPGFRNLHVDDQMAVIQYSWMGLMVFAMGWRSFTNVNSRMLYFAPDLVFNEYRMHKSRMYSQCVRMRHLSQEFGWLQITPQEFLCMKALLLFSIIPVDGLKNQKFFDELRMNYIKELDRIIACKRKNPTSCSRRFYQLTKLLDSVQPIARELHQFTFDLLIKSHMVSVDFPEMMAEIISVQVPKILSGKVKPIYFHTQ

The first test deals with human AR (Homo sapiens (Human), UniProt P10275). In words: Agonism in AR overexpressing hAR/HEK293 cells, reporter gene assay. The conditions noted are these: % of testosterone-induced AR activity at 10 μM concentration. The test is classed as cell-based. As to the method:
AR agonism of the test compound in AR overexpressing hAR/HEK293 cells was measured as % of testosterone-induced AR activity at 10 μM concentration,
Agonism of test compounds in AR overexpressing cells was measured by reporter gene assay in HEK293 cells stably transfected with an expression vector encoding full-length human AR and androgen responsive luciferase reporter gene construct. A clone expressing high levels of androgen receptor (5 times more than AR levels in AR-HEK293 cells) was selected to study agonism in AR overexpressing cells. To determine agonism, the cells were treated with increasing concentrations of the test compound. The final DMSO concentration was 1%. The test compounds were studied in triplicates and luciferase activity was determined as described above.
Background: Reporter assays use an easily measured gene product as a stand-in for the process of interest.
Consider `Cc1c(-c2ccn(C[C@H](C)NC(=O)c3csc(C(C)O)n3)n2)ccc(C#N)c1Cl` (stereo partly drawn) [Example 186, N—((S)-1-(3-(3-chloro-4-cyano-2-methylphenyl)-1H-pyrazol-1-yl)propan-2-yl)-2-(1-hydroxyethyl)thiazole-4-carboxamide], for which the “Agonism in AR overexpressing cells (%)” value is over 20%.

`C[C@@H](Cn1ccc(-c2cc(F)c(C#N)c(Cl)c2)n1)NC(=O)c1cn2cccnc2n1` [Example 324, (S)—N-(1-(3-(3-chloro-4-cyano-5-fluorophenyl)-1H-pyrazol-1-yl)propan-2-yl)imidazo[1,2-a]pyrimidine-2-carboxamide]: the “Agonism in AR overexpressing cells (%)” value is given as 16%.

`CCc1noc(C(=O)N[C@@H](C)Cn2ccc(-c3ccc(C#N)c(Cl)c3)n2)n1` [Example 91, (S)—N-(1-(3-(3-chloro-4-cyanophenyl)-1H-pyrazol-1-yl)propan-2-yl)-3-ethyl-1,2,4-oxadiazole-5-carboxamide]: the “Agonism in AR overexpressing cells (%)” value was 18%. On the same count and under the same terms, the result for `C[C@H](CNC(=O)c1csc(CC#N)n1)n1ccc(-c2cc(F)c(C#N)c(F)c2)n1` [Example 222, (R)—N-(2-(3-(4-cyano-3,5-difluorophenyl)-1H-pyrazol-1-yl)propyl)-2-(cyanomethyl)thiazole-4-carboxamide] reads 20%; that for `C[C@@H](Cn1ccc(-c2ccc(C#N)c(Cl)c2)n1)NC(=O)c1[nH]nc2c1COCC2` [Example 338, (S)—N-(1-(3-(3-chloro-4-cyanophenyl)-1H-pyrazol-1-yl)propan-2-yl)-2,4,6,7-tetrahydropyrano[4,3-c]pyrazole-3-carboxamide], 25%. On the same count and under the same terms, in the case of `Cc1noc(C(=O)N[C@@H](C)Cn2ccc(-c3ccc(C#N)c(Cl)c3)n2)n1` [Example 103, (S)—N-(1-(3-(3-chloro-4-cyanophenyl)-1H-pyrazol-1-yl)propan-2-yl)-3-methyl-1,2,4-oxadiazole-5-carboxamide] it was 19%; in that of `O=C(NCCc1ccc(-c2ccc(Cl)c(Cl)c2)o1)c1cc(C(=O)N2CCOCC2)n[nH]1` [Example 8, N-(2-(5-(3,4-dichlorophenyl)furan-2-yl)ethyl)-3-(morpholine-4-carbonyl)-1H-pyrazole-5-carboxamide], 0%; in that of `N#Cc1ccc(-c2ccn(CCNC(=O)c3cc(-c4cccnc4)n[nH]3)n2)cc1C#N` [Example 52, N-(2-(3-(3,4-dicyanophenyl)-1H-pyrazol-1-yl)ethyl)-3-(pyridin-3-yl)-1H-pyrazole-5-carboxamide], 40%. Same read-out and setting: the result for `Cc1nc(-c2cc(C(=O)N[C@@H](C)Cn3ccc(-c4ccc(C#N)c(Cl)c4)n3)n[nH]2)cs1` [Example 94, (S)—N-(1-(3-(3-chloro-4-cyanophenyl)-1H-pyrazol-1-yl)propan-2-yl)-5-(2-methylthiazol-4-yl)-1H-pyrazole-3-carboxamide] reads 18%; that for `CC(O)c1cc(C(=O)N[C@@H](C)Cn2ccc(-c3ccc(C#N)c(Cl)c3)n2)[nH]n1` (stereo partly drawn) [Example 56, N—((S)-1-(3-(3-chloro-4-cyanophenyl)-1H-pyrazol-1-yl)-propan-2-yl)-3-(1-hydroxyethyl)-1H-pyrazole-5-carboxamide], 27%. For `Cc1nc(C(=O)N[C@@H](C)Cn2ccc(-c3cc(F)c(C#N)c(Cl)c3)n2)c[nH]1` [Example 249, (S)—N-{1-[3-(3-Chloro-4-cyano-5-fluorophenyl)-1H-pyrazol-1-yl]propan-2-yl}-2-methyl-1H-imidazole-4-carboxamide], the “Agonism in AR overexpressing cells (%)” value is recorded as 34%.

With `CC(=O)c1cc(C(=O)NC[C@H](C)n2ccc(-c3cc(F)c(C#N)c(F)c3)n2)[nH]n1` [Example 219, (S)-3-acetyl-N-(2-(3-(4-cyano-3,5-difluorophenyl)-1H-pyrazol-1-yl)propyl)-1H-pyrazole-5-carboxamide], the “Agonism in AR overexpressing cells (%)” value was determined as 0%. With `C[C@@H](Cn1ccc(-c2ccc(C#N)c(Cl)c2)n1)NC(=O)c1csc(-c2cn[nH]c2)n1` [Example 206, (S)—N-(1-(3-(3-chloro-4-cyanophenyl)-1H-pyrazol-1-yl)propan-2-yl)-2-(1H-pyrazol-4-yl)thiazole-4-carboxamide], the “Agonism in AR overexpressing cells (%)” value is listed as over 20%. Consider `CC(O)c1cc(C(=O)N[C@@H](C)Cn2ccc(-c3ccc(C#N)c(Cl)c3)n2)no1` (stereo partly drawn) [Example 124, N—((S)-1-(3-(3-chloro-4-cyanophenyl)-1H-pyrazol-1-yl)propan-2-yl)-5-(1-hydroxyethyl)isoxazole-3-carboxamide], for which the “Agonism in AR overexpressing cells (%)” value stood at 5%. The same measure, in the same setting: the result for `CC(=O)c1cc(C(=O)N[C@@H](C)Cn2ccc(-c3ccc(C#N)c(Cl)c3)n2)[nH]n1` [Example 34, (S)-3-acetyl-N-(1-(3-(3-chloro-4-cyanophenyl)-1H-pyrazol-1-yl)propan-2-yl)-1H-pyrazole-5-carboxamide] reads 39%; that for `Cc1cc(-c2ccn(C[C@H](C)NC(=O)c3cc(-c4ccco4)n[nH]3)n2)ccc1C#N` [Example 32, (S)—N-(1-(3-(4-cyano-3-methylphenyl)-1H-pyrazol-1-yl)propan-2-yl)-3-(furan-2-yl)-1H-pyrazole-5-carboxamide], 39%. Still for that read-out and setting: in the case of `C[C@H](Cn1ccc(-c2ccc(C#N)c(Cl)c2)n1)NC(=O)c1csc(N2CCOCC2)n1` [Example 132, (R)—N-(1-(3-(3-chloro-4-cyanophenyl)-1H-pyrazol-1-yl)propan-2-yl)-2-morpholinothiazole-4-carboxamide] it was 21%.

In the next test the test system is VCaP prostate cancer cell line. Nature of the test: Inhibition of mibolerone-induced VCaP cell proliferation (WST-1). The format is cell-based. The note with it: Homo sapiens, mibolerone-induced (usually 0.1 nM) proliferation, 4-5 days. As to the method: The IC50 value of the test compound for inhibition of mibolerone-induced VCaP cell proliferation was measured.
Cell Proliferation Assays
The ability of test compounds to inhibit prostate, cancer cell growth was studied by measuring inhibition of cell proliferation using androgen-sensitive VCaP prostate cancer cell line. […] Cell proliferation was measured using WST-1 Cell Proliferation Assay (Roche).
Turning to `Cc1nc(C(=O)N[C@@H](C)Cn2ccc(-c3ccc(C#N)c(Cl)c3)n2)c[nH]1` [Example 248, (S)—N-{1-[3-(3-Chloro-4-cyanophenyl)-1H-pyrazol-1-yl]propan-2-yl}-2-methyl-1H-imidazole-4-carboxamide], the midpoint of inhibition, the IC50, lay at 490 nM. This counts as sub-micromolar.
